Measured values taken from US10131663B2, “Chemical compounds” (AstraZeneca AB, priority 2016, dated 2018).
≈ marks a conversion by molar mass, not a printed value.

Experiments:
[1] = molecular target: recombinant human Estrogen Receptor alpha ligand binding domain (ER alpha-LBD (GST)) (Homo sapiens (Human), UniProt P03372); test: ERα binding assay (LanthaScreen TR-FRET competition); conditions: TR-FRET, displacement of Fluormone ES2
Method in brief: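 Competition binding to GST-tagged human ERα ligand-binding domain, read by LanthaScreen TR-FRET: Tb-anti-GST antibody labels the receptor and compounds displace a fluorescent tracer, lowering the signal. IC50 was taken from dose-response curve fitting.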

[2] = molecular target: T1, Estrogen Receptor (ERα) in MCF-7 cells (Homo sapiens (Human), UniProt P03372); test: MCF-7 ER down-regulation assay (immuno-fluorescence); type: cell-based
T1 sequence (P03372 whole entry): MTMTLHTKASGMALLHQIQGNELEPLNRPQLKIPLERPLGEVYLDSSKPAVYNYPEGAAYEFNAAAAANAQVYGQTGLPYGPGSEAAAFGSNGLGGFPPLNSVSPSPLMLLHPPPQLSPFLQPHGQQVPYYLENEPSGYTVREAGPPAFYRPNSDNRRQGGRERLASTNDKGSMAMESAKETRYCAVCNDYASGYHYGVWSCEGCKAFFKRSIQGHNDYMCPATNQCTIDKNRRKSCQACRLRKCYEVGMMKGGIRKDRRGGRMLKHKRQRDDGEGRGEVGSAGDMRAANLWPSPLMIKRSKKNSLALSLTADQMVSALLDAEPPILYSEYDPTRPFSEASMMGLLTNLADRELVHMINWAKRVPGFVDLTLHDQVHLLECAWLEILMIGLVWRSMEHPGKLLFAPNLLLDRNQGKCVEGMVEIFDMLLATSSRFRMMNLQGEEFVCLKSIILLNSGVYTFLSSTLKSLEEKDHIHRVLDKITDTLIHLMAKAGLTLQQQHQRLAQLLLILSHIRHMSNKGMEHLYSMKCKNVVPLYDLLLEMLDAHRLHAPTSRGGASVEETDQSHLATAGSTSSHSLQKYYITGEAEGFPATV
Method in brief: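 Compounds dispensed acoustically from DMSO stocks onto MCF-7 cells; cells fixed 20 min at room temperature, then automated immunostaining for ERα with overnight incubation at 4° C. Read-out is mean total ER fluorescence intensity normalized to cell number (intensity per cell), with curve fitting for concentration-response values.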

[3] = molecular target: estrogen receptor (ERα) in CAMA-1 cells (Homo sapiens (Human), UniProt P03372); test: Western blotting assay, ER down-regulation in CAMA-1; type: cell-based; conditions: 100 nM compound, 48 h, normalised to 100 nM fulvestrant
estrogen receptor (ERα) in CAMA-1 cells, sequence (P03372 whole entry): as above
Experimental: (§1) Cells were incubated with compounds (100 nM) or vehicle control (0.1% DMSO) for 48 h at 37° C., 5% CO2 before washing once with PBS and lysing with 80 μl lysis buffer (25 mM Tris/HCl, 3 mM EDTA, 3 mM EGTA, 50 mM NaF, 2 mM sodium orthovanadate, 0.27 M sucrose, 10 mM β-glycerophosphate, 5 mM sodium pyrophosphate, 0.5% TritonX-100, pH 6.8) on ice.
(§2) Samples were boiled for 10 min at 95° C. and then frozen at −20° C. until ready for use.
(§3) The blot was stained with Ponceau S (P7170, Sigma) and cut according to appropriate molecular weight markers.
(§4) Membranes were blocked for 1 hour at room temp in 5% Marvel (w/v) in phosphate-buffered saline containing 0.05% Tween™ 20 (PBS/Tween). Blots were then incubated with anti-ERα (SP1) rabbit monoclonal antibody (Thermofisher) diluted 1:1000 at 4° C. overnight (with gentle shaking) followed by several washes with PBS/Tween. […] All antibodies were made up in 5% Marvel (w/v) in PBS/Tween.
(§5) Down-regulation of the ERα receptor was normalised to the vehicle control (0% down-regulation) and the 100 nM fulvestrant control (100% down-regulation) run within the same gel.

[4] = molecular target: T1, Estrogen Receptor (ERα) in MCF-7 cells; test: Western blotting assay, ER down-regulation in MCF-7; type: cell-based; conditions: 100 nM compound, 48 h, normalised to 100 nM fulvestrant
Experimental: as §1, §2, §3, §4, §5

[5] = log D (shake flask, 1-octanol/aqueous buffer); type: physicochemical
Method in brief: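 Distribution between 1-octanol and aqueous buffer at pH 7.4 was measured by shake flask, with compounds run in mixtures of ten. Relative concentrations in each phase were quantified by UPLC with quantitative MS. Caffeine served as a low-log D QC sample in all runs.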

[6] = Thermodynamic solubility (shake-flask); type: physicochemical; conditions: aqueous phosphate buffer, 25 °C, pH 7.4, aqueous buffer, thermodynamic from solid, aqueous phosphate buffer pH 7.4, 24 hours
Method in brief: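 Shake-flask method starting from 10 mM DMSO stocks, which are dried before use. Residue equilibrated 24 h at 25° C. in aqueous phosphate buffer, pH 7.4. Dissolved fraction separated and quantified by UPLC/MS/MS, with QC samples in each run.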

[7] = Human plasma protein binding (equilibrium dialysis); type: in vitro ADME; conditions: dialysis 18 hours
Method in brief: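 Fraction unbound (fu %) in human plasma, from LC/MSMS of plasma and buffer sides (7-point plasma calibration) after 18 h rapid equilibrium dialysis. Single determinations, with compounds pooled up to 10 per plasma pool.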

[8] = Human Caco-2 bidirectional permeability A to B and B to A; type: in vitro ADME; conditions: for Papp at 2 h: Caco-2, 2 hours, pH 7.4; for efflux ratio at 2 h: Caco-2, pH 7.4
[9] = 1-octanol/aqueous buffer, pH 7.4, pH 7.4, 1-octanol/aqueous buffer
[10] = pH 7.4, 1-octanol/aqueous buffer

recombinant human Estrogen Receptor alpha ligand binding domain (ER alpha-LBD (GST)), sequence (P03372 307-554): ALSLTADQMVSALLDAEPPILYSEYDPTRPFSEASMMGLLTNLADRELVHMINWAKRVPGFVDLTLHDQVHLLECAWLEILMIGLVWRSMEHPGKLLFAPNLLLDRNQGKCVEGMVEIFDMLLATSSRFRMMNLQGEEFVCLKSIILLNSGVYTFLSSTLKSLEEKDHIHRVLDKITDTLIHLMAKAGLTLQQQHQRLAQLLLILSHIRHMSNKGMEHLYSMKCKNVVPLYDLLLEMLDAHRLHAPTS

SMILES | IC50 [1] | IC50 [2] | CAMA1 Western % ER deg vs Fv [3] | MCF7 Western % ER deg vs Fv [4] | logD [5, 9] | solubility at 24 h [6] | Human plasma protein binding (% free) [7] | Papp at 2 h [8] | efflux ratio at 2 h [8] | logD [5, 10]
COc1cc(NC2CN(CCCF)C2)ccc1[C@@H]1c2ccc3[nH]ncc3c2C[C@@H](C)N1CC(F)F [Example 21, N-(4-((6S,8R)-7-(2,2-difluoroethyl)-8-methyl-6,7,8,9-tetrahydro-3H-pyrazolo[4,3-f]isoquinolin-6-yl)-3-methoxyphenyl)-1-(3-fluoropropyl)azetidin-3-amine] | 2.1 nM | 0.098 nM | 101% | 99% | 3.1 | 634 µM (≈ 309 µg/mL) | 12 % free | 4 ×10⁻⁶ cm/s | 1.6 | –
C[C@@H]1Cc2c(ccc3[nH]ncc23)[C@@H](c2ccc(NC3CN(CCCF)C3)cn2)N1CC(F)(F)F [Example 17, N-(1-(3-fluoropropyl)azetidin-3-yl)-6-((6S,8R)-8-methyl-7-(2,2,2-trifluoroethyl)-6,7,8,9-tetrahydro-3H-pyrazolo[4,3-f]isoquinolin-6-yl)pyridin-3-amine] | – | – | 96% | 92% | 2.9 | 833 µM (≈ 397 µg/mL) | 23 % free | 4.7 ×10⁻⁶ cm/s | – | –
COc1cc(NC2CN(CCCF)C2)ccc1[C@@H]1c2ccc3[nH]ncc3c2C[C@@H](C)N1CC(C)(C)F [Example 64, N-(4-((6S,8R)-7-(2-fluoro-2-methylpropyl)-8-methyl-6,7,8,9-tetrahydro-3H-pyrazolo[4,3-f]isoquinolin-6-yl)-3-methoxyphenyl)-1-(3-fluoropropyl)azetidin-3-amine] | 6.1 nM | 0.22 nM | 89% | 86% | – | 474 µM (≈ 236 µg/mL) | 14 % free | 2 ×10⁻⁶ cm/s | 5.6 | 3.2
C[C@@H]1Cc2c(ccc3[nH]nc(F)c23)[C@@H](c2ncc(NC3CN(CCCF)C3)cc2F)N1CC(F)(F)F [Example 33, 5-Fluoro-6-((6S,8R)-1-fluoro-8-methyl-7-(2,2,2-trifluoroethyl)-6,7,8,9-tetrahydro-3H-pyrazolo[4,3-f]isoquinolin-6-yl)-N-(1-(3-fluoropropyl)azetidin-3-yl)pyridin-3-amine] | 1.4 nM | 0.1 nM | 102% | 98% | – | 466 µM (≈ 239 µg/mL) | 5.4 % free | 2.6 ×10⁻⁶ cm/s | 1.5 | 3.6
C[C@@H]1Cc2c(ccc3[nH]ncc23)[C@@H](c2ccc(NC3CN(CCCF)C3)cc2)N1CC(F)F [Example 48, N-(4-((6R,8R)-7-(2,2-difluoroethyl)-8-methyl-6,7,8,9-tetrahydro-3H-pyrazolo[4,3-f]isoquinolin-6-yl)phenyl)-1-(3-fluoropropyl)azetidin-3-amine] | 1.5 nM | 0.078 nM | 94% | 93% | 3.1 | 582 µM (≈ 266 µg/mL) | 10 % free | – | – | –
C[C@@H]1Cc2c(ccc3[nH]ncc23)[C@@H](c2ncc(NC3CN(CCCF)C3)cc2F)N1CC1(F)CC1 [Example 18, 5-fluoro-6-((6S,8R)-7-((1-fluorocyclopropyl)methyl)-8-methyl-6,7,8,9-tetrahydro-3H-pyrazolo[4,3-f]isoquinolin-6-yl)-N-(1-(3-fluoropropyl)azetidin-3-yl)pyridin-3-amine] | 29 nM | 0.42 nM | 95% | 103% | 2.6 | 910 µM (≈ 441 µg/mL) | 34 % free | – | – | –
COCC(F)(F)CN1[C@H](c2ccc(NC3CN(CCCF)C3)cc2OC)c2ccc3[nH]ncc3c2C[C@H]1C [Example 1, N-(4-((6S,8R)-7-(2,2-difluoro-3-methoxypropyl)-8-methyl-6,7,8,9-tetrahydro-3H-pyrazolo[4,3-f]isoquinolin-6-yl)-3-methoxyphenyl)-1-(3-fluoropropyl)azetidin-3-amine] | 3.7 nM | 0.1 nM | 92% | 91% | 3.4 | 379 µM (≈ 201 µg/mL) | 8.3 % free | 0.9 ×10⁻⁶ cm/s | 9.4 | –
C[C@@H]1Cc2c(ccc3[nH]ncc23)[C@@H](c2ccc(NC3CN(CCCF)C3)cc2)N1CC(F)(F)F [Example 27, 1-(3-Fluoropropyl)-N-(4-((6R,8R)-8-methyl-7-(2,2,2-trifluoroethyl)-6,7,8,9-tetrahydro-3H-pyrazolo[4,3-f]isoquinolin-6-yl)phenyl)azetidin-3-amine] | 0.81 nM | 0.05 nM | 108% | 110% | 3.8 | 229 µM (≈ 109 µg/mL) | 3.8 % free | 5.4 ×10⁻⁶ cm/s | 0.9 | –
C[C@@H]1Cc2c(ccc3[nH]ncc23)[C@@H](c2ccc(NC3CN(CCCF)C3)cn2)N1CC1(F)CC1 [Example 3, 6-((6S,8R)-7-((1-fluorocyclopropyl)methyl)-8-methyl-6,7,8,9-tetrahydro-3H-pyrazolo[4,3-f]isoquinolin-6-yl)-N-(1-(3-fluoropropyl)azetidin-3-yl)pyridin-3-amine] | 6.5 nM | 0.64 nM | 102% | 90% | – | > 941 µM | 26 % free | 2.3 ×10⁻⁶ cm/s | 9.2 | 2.5
COCC(F)(F)CN1[C@H](c2ccc(NC3CN(CCCF)C3)cn2)c2ccc3[nH]ncc3c2C[C@H]1C [Example 2, 6-((6S,8R)-7-(2,2-difluoro-3-methoxypropyl)-8-methyl-6,7,8,9-tetrahydro-3H-pyrazolo[4,3-f]isoquinolin-6-yl)-N-(1-(3-fluoropropyl)azetidin-3-yl)pyridin-3-amine] | 2.8 nM | 3.1 nM | 95% | 93% | 2.6 | 217 µM (≈ 109 µg/mL) | 28 % free | 3.9 ×10⁻⁶ cm/s | 8.4 | –
C[C@@H]1Cc2c(ccc3[nH]ncc23)[C@@H](c2ncc(NC3CN(CCCF)C3)cc2F)N1CC(F)(F)F [Example 30, 5-fluoro-N-(1-(3-fluoropropyl)azetidin-3-yl)-6-((6S,8R)-8-methyl-7-(2,2,2-trifluoroethyl)-6,7,8,9-tetrahydro-3H-pyrazolo[4,3-f]isoquinolin-6-yl)pyridin-3-amine] | 1.8 nM | 0.28 nM | 98% | 96% | – | 754 µM (≈ 373 µg/mL) | 16 % free | 2.7 ×10⁻⁶ cm/s | 7.8 | 3
COc1cc(NC2CN(CCCF)C2)ccc1[C@@H]1c2ccc3[nH]ncc3c2C[C@@H](C)N1CC(F)(F)F [Example 28, 1-(3-fluoropropyl)-N-(3-methoxy-4-((6S,8R)-8-methyl-7-(2,2,2-trifluoroethyl)-6,7,8,9-tetrahydro-3H-pyrazolo[4,3-f]isoquinolin-6-yl)phenyl)azetidin-3-amine] | 5.7 nM | 0.065 nM | 110% | 95% | – | 150 µM (≈ 75.8 µg/mL) | 6 % free | 1.2 ×10⁻⁶ cm/s | 3.8 | 3.6
